Test results as given in patent US20250171438A1 (Agios Pharmaceuticals, Inc., priority 2022, published 2025).

Target: T1, human PAH with the R408W mutation (Homo sapiens, UniProt P00439, R408W)
T1 construct: expressed in transfected cells
T1 sequence (P00439 1-452 R408W): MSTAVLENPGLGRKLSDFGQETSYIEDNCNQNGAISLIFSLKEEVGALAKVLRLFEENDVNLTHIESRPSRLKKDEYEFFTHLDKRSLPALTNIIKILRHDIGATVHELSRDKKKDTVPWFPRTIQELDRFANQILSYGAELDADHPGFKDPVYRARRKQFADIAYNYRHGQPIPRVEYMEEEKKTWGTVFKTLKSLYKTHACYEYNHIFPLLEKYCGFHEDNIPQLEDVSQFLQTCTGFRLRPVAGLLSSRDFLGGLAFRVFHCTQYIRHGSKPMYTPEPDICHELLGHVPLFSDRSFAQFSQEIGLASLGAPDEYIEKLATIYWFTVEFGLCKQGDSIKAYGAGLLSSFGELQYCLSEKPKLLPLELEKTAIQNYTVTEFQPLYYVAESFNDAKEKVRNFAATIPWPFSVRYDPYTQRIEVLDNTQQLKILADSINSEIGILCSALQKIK
Experiment: Cell Based Phenylalanine Flux Assay
Details: A375 cells expressing human R408W PAH; 24 hrs compound incubation; 13C-Tyrosine by LC-MS; average where tested multiple times; read-out: AC50

Row | AC50 [nM] | Compound
1 | 500 to 1000 | CC(C)(O)c1nc(C(F)F)c(C(=O)N2CCc3[nH]cnc3[C@@H]2c2nc3c(F)cccc3s2)s1 [Example 2086, (R)-(4-(difluoromethyl)-2-(2-hydroxypropan-2-yl)thiazol-5-yl)(4-(4-fluorobenzo[d]thiazol-2-yl)-6,7-dihydro-1H-imidazo[4,5-c]pyridin-5(4H)-yl)methanone]
2 | 1000 to 5000 | CC(C)(O)c1nc(Cl)c(C(=O)N2CCc3[nH]cnc3[C@H]2c2nc3c(F)cccc3s2)s1 [Example 2087, (S)-(4-chloro-2-(2-hydroxypropan-2-yl)thiazol-5-yl)(4-(4-fluorobenzo[d]thiazol-2-yl)-6,7-dihydro-1H-imidazo[4,5-c]pyridin-5(4H)-yl)methanone]
3 | 1000 to 5000 | CC(C)(O)c1nc(Cl)c(C(=O)N2CCc3[nH]cnc3[C@@H]2c2nc3c(F)cccc3s2)s1 [Example 2088, (R)-(4-chloro-2-(2-hydroxypropan-2-yl)thiazol-5-yl)(4-(4-fluorobenzo[d]thiazol-2-yl)-6,7-dihydro-1H-imidazo[4,5-c]pyridin-5(4H)-yl)methanone]
4 | < 500 | CC(C)(O)c1nc(Br)c(C(=O)N2CCc3[nH]cnc3[C@H]2c2nc3ccccc3s2)o1 [Example 2089]
5 | 1000 to 5000 | CC(C)(O)c1nc(Br)c(C(=O)N2CCc3[nH]cnc3[C@@H]2c2nc3ccccc3s2)o1 [Example 2090, (R)-(4-(benzo[d]thiazol-2-yl)-6,7-dihydro-1H-imidazo[4,5-c]pyridin-5(4H)-yl)(4-bromo-2-(2-hydroxypropan-2-yl)oxazol-5-yl)methanone]
6 | < 500 | C[C@@H](O)c1nc(C(F)F)c(C(=O)N2CCc3[nH]cnc3[C@H]2c2nc3ccccc3s2)o1 [Example 2091]
7 | 500 to 1000 | C[C@@H](O)c1nc(C(F)F)c(C(=O)N2CCc3[nH]cnc3[C@@H]2c2nc3ccccc3s2)o1 [Example 2092, ((R)-4-(benzo[d]thiazol-2-yl)-6,7-dihydro-1H-imidazo[4,5-c]pyridin-5(4H)-yl)(4-(difluoromethyl)-2-((R)-1-hydroxyethyl)oxazol-5-yl)methanone]
8 | < 500 | CC(C)(O)c1nc(Br)c(C(=O)N2CCc3[nH]cnc3[C@H]2c2nc3c(F)cccc3s2)s1 [Example 2093, (S)-(4-bromo-2-(2-hydroxypropan-2-yl)thiazol-5-yl)(4-(4-fluorobenzo[d]thiazol-2-yl)-6,7-dihydro-1H-imidazo[4,5-c]pyridin-5(4H)-yl)methanone]
9 | 1000 to 5000 | CC(C)(O)c1nc(Br)c(C(=O)N2CCc3[nH]cnc3[C@@H]2c2nc3c(F)cccc3s2)s1 [Example 2094, (R)-(4-bromo-2-(2-hydroxypropan-2-yl)thiazol-5-yl)(4-(4-fluorobenzo[d]thiazol-2-yl)-6,7-dihydro-1H-imidazo[4,5-c]pyridin-5(4H)-yl)methanone]
10 | < 500 | C[C@H](O)c1nc(C(F)F)c(C(=O)N2CCc3[nH]cnc3[C@H]2c2nc3ccccc3s2)o1 [Example 2095]
11 | 1000 to 5000 | C[C@H](O)c1nc(C(F)F)c(C(=O)N2CCc3[nH]cnc3[C@@H]2c2nc3ccccc3s2)o1 [Example 2096, ((R)-4-(benzo[d]thiazol-2-yl)-6,7-dihydro-1H-imidazo[4,5-c]pyridin-5(4H)-yl)(4-(difluoromethyl)-2-((S)-1-hydroxyethyl)oxazol-5-yl)methanone]
12 | < 500 | O=C(c1ccnn1C(F)(F)F)N1CCc2[nH]cnc2[C@H]1c1nc2ccccc2s1 [Example 2097]
13 | 500 to 1000 | O=C(c1ccnn1C(F)(F)F)N1CCc2[nH]cnc2[C@@H]1c1nc2ccccc2s1 [Example 2098, (R)-(4-(benzo[d]thiazol-2-yl)-6,7-dihydro-1H-imidazo[4,5-c]pyridin-5(4H)-yl)(1-(trifluoromethyl)-1H-pyrazol-5-yl)methanone]
14 | < 500 | O=C(c1ccnn1C(F)(F)F)N1CCc2[nH]cnc2[C@H]1c1nc2c(F)cccc2s1 [Example 2099, (S)-(4-(4-fluorobenzo[d]thiazol-2-yl)-6,7-dihydro-1H-imidazo[4,5-c]pyridin-5(4H)-yl)(1-(trifluoromethyl)-1H-pyrazol-5-yl)methanone]
